The test system of experiment [1] is Septoria tritici (ATCC 26517). Description: Minimum Inhibitory Concentration (MIC) (Septoria tritici), CLSI-based microdilution. The format is cell-based. As to conditions: Zymoseptoria tritici, ATCC26517, 168 h; S. tritici ATCC 26517; 50% growth reduction; 7 days at 22 °C; read-out: Septoria Rating (MIC). As to the method: C. Minimum Inhibitory Concentration (MIC) (Septoria tritici) Compounds of the present disclosure were assessed for their ability to inhibit the growth of a common strain of the fungal plant pathogen Septoria tritici (ATCC 26517) using a procedure based on a Clinical and Laboratory Standards Institute (CLSI) microdilution assay protocol for filamentous fungi. Stock solutions of the test compounds and standards were prepared in DMSO at 6400 μg/mL. Each stock solution was used to prepare a 2-fold dilution series ranging from 16 to 0.016 μg/mL (total of 11 compound concentrations) in RPMI-1640 (Roswell Park Memorial Institute) medium containing 3-(N-morpholino)propanesulfonic acid (MOPS) buffer and 2% DMSO. A 100 μL aliquot of the dilutions was added to columns 1 (16 μg/mL compound) through 11 (0.016 μg/mL compound) of a 96-well microtiter plate. This format was replicated in a second row of the microtiter plate. Thus, each microtiter plate could include 11 concentrations of four test or control compounds replicated twice. A 100 μL aliquot of RPMI-1640/MOPS/2% DMSO medium was added to column 12 (no compound control) of the microtiter plate. A fresh culture of S. tritici was used to prepare a solution of approximately 5×10^4 colony-forming units per milliliter (cfu/mL) in RPMI/MOPS medium without DMSO. A 100 μL aliquot of this solution was added to all 96 wells in the microtiter plate. […] The assay plates were incubated at 22° C. for seven days in the dark without shaking. […] In each case of Table 3 the rating scale is as follows: […]
Background: Dilution methods test growth across graded concentrations, often in twofold steps.

The test system of experiment [2] is Puccinia recondita tritici. The experiment is described as follows: Fungicidal activity vs. leaf rust on wheat plants (PUCCRT). The format is in vivo, Puccinia recondita tritici=Puccinia triticina. Conditions: 50 ppm spray on wheat (variety Yuma); inoculated the following day; severity evaluated 7-9 days later. An excerpt:
D. Evaluation of Fungicidal Activity Vs. Leaf Rust (Causal Agent Puccinia recondita tritici=Puccinia triticina; Bayer Code PUCCRT).
Each pot contained 3-8 seedlings. These plants were sprayed until wet with the formulated test compounds. The compounds were formulated at 50 ppm in 10 vol. % acetone plus 90 vol. % Triton X water (deionized water 99.99 wt %+0.01 wt % Triton X100), giving a “formulated test compound.” Formulated test compounds were applied to plants using a turn table sprayer fitted with two opposing air atomization nozzles which delivered approximately 1500 L/ha of spray volume. On the following day, the leaves were inoculated with an aqueous spore suspension of Puccinia recondita tritici and the plants were kept in high humidity overnight to permit spores to germinate and infect the leaf. The plants were then transferred to a greenhouse until disease developed on untreated control plants. Disease severity was evaluated 7-9 days later, depending on the speed of disease development. Compounds 4(−), 9(+), 11, 13, 18, 21, 25, 26, 27, 28, 32, 34, 37, 38, 39, 42, 43, 48, 51, 52, 56, 57, and 59 were selected for testing against PUCCRT at 50 ppm. Compounds that provided >80% disease control at 50 ppm included 4(−), 9(+), 11, 13, 18, 21, 25, 26, 27, 28, 32, 34, 37, 38, 39, 42, 43, 48, 52, 56, and 57.

The source of these data is patent US8883797B2, “Metalloenzyme inhibitor compounds” (Viamet Pharmaceuticals, Inc., priority 2011, dated 2014).

≈ marks a conversion by molar mass, not a printed value.

As to `OC(Cn1cnnn1)(c1ccc(F)cc1F)C(F)(F)c1ccc2cc(Cl)ccc2n1` (stereo not drawn) [4(−), 1-(6-Chloroquinolin-2-yl)-2-(2,4-difluorophenyl)-1,1-difluoro-3-(1H-tetrazol-1-yl)propan-2-ol], the MIC (usually the least concentration at which growth counts as inhibited) in experiment [1] was not above 0.5 µg/mL. Also, the disease control in experiment [2] was more than 80%.
As for `OC(Cn1cnnn1)(c1ccc(F)cc1F)C(F)(F)c1ccc2cc(Br)ccc2n1` (stereo not drawn) [9(+), 1-(6-Bromoquinolin-2-yl)-2-(2,4-difluorophenyl)-1,1-difluoro-3-(1H-tetrazol-1-yl)propan-2-ol], the MIC in experiment [1] is not above 0.5 µg/mL. The compound also came in with a disease control in experiment [2] of more than 80%.
For the compound `OC(Cn1cnnn1)(c1ccc(F)cc1F)C(F)(F)c1nc2ccc(Cl)cc2s1` (centres unmarked) [Compound 11, 1-(6-Chlorobenzo[d]thiazol-2-yl)-2-(2,4-difluorophenyl)-1,1-difluoro-3-(1H-tetrazol-1-yl)propan-2-ol], the MIC in experiment [1] was not above 0.5 µg/mL. In experiment [2], this compound came in with a disease control of more than 80%.
For `OC(Cn1cnnn1)(c1ccc(F)cc1F)C(F)(F)c1ccc(Br)s1` (centres unmarked) [Compound 13, 1-(5-Bromothiophen-2-yl)-2-(2,4-difluorophenyl)-1,1-difluoro-3-(1H-tetrazol-1-yl)propan-2-ol], in that order: not above 0.5 µg/mL and more than 80%.
For `OC(Cn1cnnn1)(c1ccc(F)cc1F)C(F)(F)c1ccc2cc(C(F)(F)F)ccc2n1` (centres unmarked) [Compound 18, 2-(2,4-Difluorophenyl)-1,1-difluoro-3-(1H-tetrazol-1-yl)-1-(6-(trifluoromethyl)quinolin-2-yl)propan-2-ol], in that order: not above 0.5 µg/mL and more than 80%.
For `OC(Cn1cnnn1)(c1ccc(F)cc1F)C(F)(F)c1ccc2cc(OC(F)(F)F)ccc2n1` (centres unmarked) [Compound 21, 2-(2,4-Difluorophenyl)-1,1-difluoro-3-(1H-tetrazol-1-yl)-1-(6-(trifluoromethoxy)quinolin-2-yl)propan-2-ol], in experiment [1], the MIC was not above 0.5 µg/mL. Besides, in experiment [2], the disease control is more than 80%.
Take `OC(Cn1cnnn1)(c1ccc(F)cc1F)C(F)(F)c1ccc2c(Cl)c(Cl)ccc2n1` (centres unmarked) [Compound 29, 1-(5,6-Dichloroquinolin-2-yl)-2-(2,4-difluorophenyl)-1,1-difluoro-3-(1H-tetrazol-1-yl)propan-2-ol]: the MIC in experiment [1] was not above 0.5 µg/mL.
The same measure, in the same setting: under `OC(Cn1cnnn1)(c1ccc(F)cc1F)C(F)(F)c1ccc2c(OCC(F)(F)F)cccc2n1` (centres unmarked) [Compound 30, 2-(2,4-Difluorophenyl)-1,1-difluoro-3-(1H-tetrazol-1-yl)-1-(5-(2,2,2-trifluoroethoxy)quinolin-2-yl)propan-2-ol] stands 1.5 to 4 µg/mL (≈ 2.99 to 7.98 µM); under `OC(Cn1cnnn1)(c1ccc(F)cc1F)C(F)(F)c1ccc2c(Cl)cccc2n1` (centres unmarked) [Compound 31, 1-(5-Chloroquinolin-2-yl)-2-(2,4-difluorophenyl)-1,1-difluoro-3-(1H-tetrazol-1-yl)propan-2-ol], 1.5 to 4 µg/mL (≈ 3.43 to 9.14 µM); under `OC(Cn1cnnc1)(c1ccc(F)cc1F)C(F)(F)c1ccc2cc(Cl)ccc2n1` (centres unmarked) [Compound 35, 1-(6-Chloroquinolin-2-yl)-2-(2,4-difluorophenyl)-1,1-difluoro-3-(4H-1,2,4-triazol-4-yl)propan-2-ol], 1.5 to 4 µg/mL (≈ 3.43 to 9.16 µM).
On the same count and under the same terms, under `OC(Cn1cnnn1)(c1ccc(F)cc1F)C(F)(F)c1ccc(-c2ccc(OCC(F)(F)F)cc2)nc1` (centres unmarked) [Compound 36, 2-(2,4-Difluorophenyl)-1,1-difluoro-3-(1H-tetrazol-1-yl)-1-(6-(4-(2,2,2-trifluoroethoxy)phenyl)pyridin-3-yl)propan-2-ol] stands 1.5 to 4 µg/mL (≈ 2.84 to 7.58 µM); under `OC(Cn1cnnn1)(c1ccc(F)cc1F)C(F)(F)c1cnc(-c2ccc(Cl)cc2)cn1` (centres unmarked) [Compound 40, 1-(5-(4-Chlorophenyl)pyrazin-2-yl)-2-(2,4-difluorophenyl)-1,1-difluoro-3-(1H-tetrazol-1-yl)propan-2-ol], 0.5 to 1.5 µg/mL (≈ 1.08 to 3.23 µM).
Regarding `OC(Cn1cnnn1)(c1ccc(F)cc1F)C(F)(F)c1cnc(-c2ccc(OCC(F)(F)F)cc2)cn1` (centres unmarked) [Compound 41, 2-(2,4-Difluorophenyl)-1,1-difluoro-3-(1H-tetrazol-1-yl)-1-(5-(4-(2,2,2-trifluoroethoxy)phenyl)pyrazin-2-yl)propan-2-ol], the minimum inhibitory concentration (MIC) in experiment [1] is not above 0.5 µg/mL.
The same measure, in the same setting: under `OC(Cn1cnnn1)(c1ccc(F)cc1F)C(F)(F)c1cnc(-c2ccc(F)c(F)c2)cn1` (centres unmarked) [Compound 44, 2-(2,4-Difluorophenyl)-1-(5-(3,4-difluorophenyl)pyrazin-2-yl)-1,1-difluoro-3-(1H-tetrazol-1-yl)propan-2-ol] stands 0.5 to 1.5 µg/mL (≈ 1.07 to 3.22 µM); under `OC(Cn1cnnn1)(c1ccc(F)cc1)C(F)(F)c1cnc(-c2ccc(OC(F)(F)F)cc2)cn1` (centres unmarked) [Compound 45, 1,1-Difluoro-2-(4-fluorophenyl)-3-(1H-tetrazol-1-yl)-1-(5-(4-(trifluoromethoxy)phenyl)pyrazin-2-yl)propan-2-ol], 1.5 to 4 µg/mL (≈ 3.02 to 8.06 µM).
Turning to `OC(Cn1cnnn1)(c1ccc(F)cc1F)C(F)(F)c1cnc(-c2ccc(F)cc2)cn1` (centres unmarked) [Compound 46, 2-(2,4-Difluorophenyl)-1,1-difluoro-1-(5-(4-fluorophenyl)pyrazin-2-yl)-3-(1H-tetrazol-1-yl)propan-2-ol], in experiment [1], the MIC was 0.5 to 1.5 µg/mL (≈ 1.12 to 3.35 µM).
As to `OC(Cn1ncnn1)(c1ccc(F)cc1F)C(F)(F)c1cnc(-c2ccc(F)cc2)cn1` (centres unmarked) [Compound 47, 2-(2,4-Difluorophenyl)-1,1-difluoro-1-(5-(4-fluorophenyl)pyrazin-2-yl)-3-(2H-tetrazol-2-yl)propan-2-ol], the MIC in experiment [1] was more than 4 µg/mL.
On to `OC(Cn1cnnn1)(c1ccc(F)cc1F)C(F)(F)c1cnc(C#Cc2ccc(F)cc2)cn1` (centres unmarked) [Compound 50, 2-(2,4-Difluorophenyl)-1,1-difluoro-1-(5-((4-fluorophenyl)ethynyl)pyrazin-2-yl)-3-(1H-tetrazol-1-yl)propan-2-ol], for which the MIC in experiment [1] is not above 0.5 µg/mL.
In the case of `OC(Cn1ncnn1)(c1ccc(F)cc1F)C(F)(F)c1cnc(C#Cc2ccc(F)cc2)cn1` (centres unmarked) [Compound 51, 2-(2,4-difluorophenyl)-1,1-difluoro-1-(5-((4-fluorophenyl)ethynyl)pyrazin-2-yl)-3-(2H-tetrazol-2-yl)propan-2-ol], the MIC in experiment [1] was 1.5 to 4 µg/mL (≈ 3.18 to 8.47 µM).
On the same count and under the same terms, then `OC(Cn1ncnn1)(c1ccc(F)cc1F)C(F)(F)c1cnc(CCc2ccc(F)cc2)cn1` (centres unmarked) [Compound 53, 2-(2,4-Difluorophenyl)-1,1-difluoro-1-(5-(4-fluorophenethyl)pyrazin-2-yl)-3-(2H-tetrazol-2-yl)propan-2-ol], with 1.5 to 4 µg/mL (≈ 3.15 to 8.4 µM).
On to `OC(Cn1cnnn1)(c1ccc(F)cc1F)C(F)(F)c1cnc2cc(OC(F)(F)F)ccc2n1` (centres unmarked) [Compound 54, 2-(2,4-Difluorophenyl)-1,1-difluoro-3-(1H-tetrazol-1-yl)-1-(6-(trifluoromethoxy)quinoxalin-2-yl)propan-2-ol], for which the MIC in experiment [1] lay in the range of 1.5 to 4 µg/mL (≈ 3.07 to 8.19 µM).
On the same count and under the same terms, then `OC(Cn1cnnn1)(c1ccc(F)cc1F)C(F)(F)c1cnc2cc(F)ccc2n1` (centres unmarked) [Compound 55, 2-(2,4-Difluorophenyl)-1,1-difluoro-1-(6-fluoroquinoxalin-2-yl)-3-(1H-tetrazol-1-yl)propan-2-ol], with 1.5 to 4 µg/mL (≈ 3.55 to 9.47 µM).
On the same count and under the same terms, then `OC(Cn1cnnn1)(c1ccc(F)cc1F)C(F)(F)c1ccc(-c2ccc(F)cc2)nn1` (centres unmarked) [Compound 58, 2-(2,4-Difluorophenyl)-1,1-difluoro-1-(6-(4-fluorophenyl)pyridazin-3-yl)-3-(1H-tetrazol-1-yl)propan-2-ol], with 1.5 to 4 µg/mL (≈ 3.35 to 8.92 µM); and `C=Cc1ccc2nc(C(F)(F)C(O)(Cn3cnnn3)c3ccc(F)cc3F)cnc2c1` (centres unmarked) [Compound 59, 2-(2,4-Difluorophenyl)-1,1-difluoro-3-(1H-tetrazol-1-yl)-1-(6-vinylquinoxalin-2-yl)propan-2-ol], with 0.5 to 1.5 µg/mL (≈ 1.16 to 3.49 µM); and `OC(Cn1cnnn1)(c1ccc(F)cc1F)C(F)(F)c1ccc(-c2ccc(OCC(F)(F)F)cc2)cc1` (centres unmarked) [Compound 60, 2-(2,4-Difluorophenyl)-1,1-difluoro-3-(1H-tetrazol-1-yl)-1-(4′-(2,2,2-trifluoroethoxy)biphenyl-4-yl)propan-2-ol], with 1.5 to 4 µg/mL (≈ 2.85 to 7.6 µM).
As to `OC(Cn1cnnn1)(c1ccc(F)cc1F)C(F)(F)c1ccc(-c2ccc(F)cc2)cc1` (centres unmarked) [Compound 61, 2-(2,4-Difluorophenyl)-1,1-difluoro-1-(4′-fluoro-[1,1′-biphenyl]-4-yl)-3-(1H-tetrazol-1-yl)propan-2-ol], in experiment [1], the MIC is 0.5 to 1.5 µg/mL (≈ 1.12 to 3.36 µM).
